Columns and labels:
Assay in all cases: relative viability (nuclei count vs DMSO), 5 days (fraction); higher = more cells survive
[1] = compound: CCOC(=O)CCNc1cc(N2CCc3ccccc3CC2)nc(-c2ccccn2)n1 [GSK-J4] + Nc1nc2[nH]cc(CCc3ccc(C(=O)N[C@@H](CCC(=O)O)C(=O)O)cc3)c2c(=O)[nH]1 [Pemetrexed] (partner 0.2 µM)
How it was run: (§1)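 Lung cancer cell lines in 1536-well plates were dosed by pin tool the day after seeding, either with one drug alone or with a fixed anchor-drug dose plus five library-drug doses (not always all listed) in √10 steps. After 5 days, cells were fixed and their nuclei stained in one step (final 0.05% Triton X-100, 1% formaldehyde, 1 ug/ml Hoechst), then counted on 4× images. Relative viability is the nuclei count in treated wells divided by that in vehicle wells. Values are medians of duplicate plates.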

[2] = compound: CCOC(=O)CCNc1cc(N2CCc3ccccc3CC2)nc(-c2ccccn2)n1 [GSK-J4] + CC(C)C[C@H](NC(=O)[C@H](Cc1ccccc1)NC(=O)c1cnccn1)B(O)O [Bortezomib] (partner 0.002 µM)
How it was run: as §1

[3] = compound: CCOC(=O)CCNc1cc(N2CCc3ccccc3CC2)nc(-c2ccccn2)n1 [GSK-J4] + CC1(C)CCC(c2ccc(Cl)cc2)=C(CN2CCN(c3ccc(C(=O)NS(=O)(=O)c4ccc(N[C@H](CCN5CCOCC5)CSc5ccccc5)c(S(=O)(=O)C(F)(F)F)c4)cc3)CC2)C1 [Navitoclax] (partner 0.5 µM)
How it was run: as §1

[4] = compound: CN1CCC(CC1)OC2=CC(=C(C=C2)NC3=NC=C4C(=N3)N(C(=O)N4C)C5CCCC5)OC [AZ3146] + N=C(N)NC(=N)NCCc1ccccc1 [Phenformin] (partner 250 µM)
How it was run: as §1

| Cell Line | relative viability ([1]; first compound 0.5 µM) | relative viability ([1]; first compound 1.581 µM) | relative viability ([1]; first compound 15.81 µM) | relative viability ([1]; first compound 50 µM) | relative viability ([2]; first compound 0.5 µM) | relative viability ([2]; first compound 1.581 µM) | relative viability ([2]; first compound 15.81 µM) | relative viability ([2]; first compound 50 µM) | relative viability ([3]; first compound 0.5 µM) | relative viability ([3]; first compound 1.581 µM) | relative viability ([3]; first compound 15.81 µM) | relative viability ([3]; first compound 50 µM) | relative viability ([4]; first compound 0.08 µM) | relative viability ([4]; first compound 0.253 µM) | relative viability ([4]; first compound 0.8 µM) | relative viability ([4]; first compound 2.53 µM) | relative viability ([4]; first compound 8 µM) | relative viability ([1]; first compound 5 µM) | relative viability ([2]; first compound 5 µM) | relative viability ([3]; first compound 5 µM) |
| --- | --- | --- | --- | --- | --- | --- | --- | --- | --- | --- | --- | --- | --- | --- | --- | --- | --- | --- | --- | --- |
| HCC-366 | 0.148 | 0.145 | 0.229 | 0.169 | 1 | 1.02 | 1.01 | 0.96 | 1.08 | 0.806 | 1.02 | 1.03 | 0.58 | 0.544 | 0.607 | 0.601 | 0.587 | – | – | – |
| HCC-827 | 0.248 | 0.26 | 0.229 | 0.285 | 1.02 | 0.95 | 1.11 | 1.04 | 1.02 | 0.991 | 1 | 0.994 | 0.443 | 0.372 | 0.401 | 0.416 | 0.348 | 0.258 | 0.883 | 1.06 |
| HOP-62 | 0.316 | 0.3 | 0.329 | 0.364 | 0.688 | 0.532 | 0.74 | 0.823 | 0.955 | 0.989 | 1.1 | 0.707 | 0.567 | 0.697 | 0.604 | 0.647 | 0.523 | 0.324 | 0.73 | 1.11 |
| IA-LM | – | – | – | – | 0.709 | 0.816 | 0.763 | 0.131 | 0.747 | 0.718 | 0.666 | 0.105 | – | – | – | – | – | – | 0.775 | 0.802 |
| LC-2-ad | 0.288 | 0.281 | 0.267 | 0.272 | 0.932 | 0.907 | 1.01 | 0.94 | 0.464 | 0.389 | 0.374 | 0.41 | 0.54 | 0.557 | 0.614 | 0.628 | 0.609 | 0.247 | 0.749 | 0.407 |
| LCLC-103H | 0.483 | 0.374 | 0.42 | 0.509 | 1.05 | 0.96 | 0.899 | 1.07 | – | – | – | – | 0.317 | 0.32 | 0.348 | 0.363 | 0.38 | 0.378 | 1.02 | – |
| LK-2 | 0.281 | 0.239 | 0.226 | 0.172 | – | – | – | – | 0.884 | 0.838 | 0.829 | 1.05 | 0.397 | 0.392 | 0.292 | 0.409 | 0.295 | 0.329 | – | 0.874 |
| NCI-H358 | 0.237 | – | 0.171 | 0.188 | – | – | – | – | – | – | – | – | 0.451 | 0.283 | 0.319 | 0.313 | 0.149 | 0.171 | – | – |
| NCI-H522 | 0.983 | 0.823 | 0.608 | 1.1 | – | – | – | – | – | – | – | – | 0.818 | 0.698 | 0.757 | 0.631 | 0.62 | – | – | – |
| NCI-H650 | 0.82 | 0.843 | 0.833 | 0.842 | 0.76 | 0.525 | 0.663 | 0.663 | – | – | – | – | 0.386 | 0.44 | 0.445 | 0.526 | 0.461 | – | 0.495 | – |
| NCI-H661 | 0.908 | 0.827 | 0.883 | 0.788 | 0.896 | 0.852 | 0.589 | 0.583 | – | – | – | – | 0.285 | 0.25 | 0.265 | 0.274 | 0.29 | 0.883 | 0.791 | – |
| NCI-H727 | – | – | – | – | 0.934 | – | 0.954 | 0.35 | 0.394 | – | 0.404 | 0.208 | 0.456 | 0.545 | 0.341 | 0.61 | 0.417 | – | 1.19 | 0.648 |
| NCI-H1299 | – | – | – | – | 1.06 | 0.94 | 0.98 | 0.985 | 1.08 | 0.875 | 1.04 | 0.971 | – | – | – | – | – | – | 0.876 | 0.955 |
| NCI-H1395 | 0.894 | 0.73 | 0.764 | 0.707 | – | – | – | – | 1.31 | 1.08 | 1.05 | 0.898 | 0.394 | 0.45 | 0.379 | 0.423 | 0.445 | 0.707 | – | 0.896 |
| NCI-H1563 | 0.738 | 1.26 | 0.698 | 0.76 | 0.809 | 0.952 | 0.66 | 0.808 | – | – | – | – | 0.619 | 0.645 | 0.596 | 0.639 | 0.644 | 0.717 | 0.776 | – |
| NCI-H1623 | – | – | – | – | – | – | – | – | – | – | – | – | 0.586 | 0.534 | 0.591 | 0.607 | 0.565 | – | – | – |
| NCI-H1648 | 0.618 | – | – | 0.873 | – | – | – | – | – | – | – | – | – | – | – | – | – | 1.02 | – | – |
| NCI-H1703 | – | – | – | – | 0.377 | 0.377 | 0.355 | 0.436 | 0.944 | 0.963 | 1.08 | 1.25 | – | – | – | – | – | – | 0.234 | 0.776 |
| NCI-H1793 | 1.01 | 0.6 | 0.235 | 0.167 | – | – | – | – | 0.389 | 0.473 | 0.307 | 0.273 | 0.473 | 0.286 | 0.339 | 0.35 | 0.213 | 0.684 | – | 0.379 |
| NCI-H1944 | 0.553 | 0.565 | 0.48 | 0.586 | – | – | – | – | 1.06 | 0.953 | 0.913 | 1 | 0.168 | 0.18 | 0.188 | 0.19 | 0.207 | – | – | 1.15 |
| NCI-H2170 | 0.237 | 0.292 | 0.252 | 0.273 | – | – | – | – | 0.585 | 0.547 | 0.44 | 0.48 | 0.352 | 0.434 | 0.338 | 0.364 | 0.357 | 0.243 | – | 0.678 |
| NCI-H2342 | 0.737 | 0.79 | 0.84 | 0.824 | – | – | – | – | – | – | – | – | 0.568 | 0.565 | 0.615 | 0.512 | 0.51 | 0.762 | – | – |
| SK-MES-1 | 0.836 | 0.878 | 0.808 | 0.508 | – | – | – | – | 1.13 | 1.03 | 1.01 | 0.857 | 0.661 | 0.649 | 0.61 | 0.635 | 0.518 | 0.882 | – | 1.25 |
| SW 900 | 0.478 | 0.478 | 0.442 | 0.526 | – | – | – | – | – | – | – | – | 0.625 | 0.576 | 0.439 | 0.502 | 0.383 | 0.475 | – | – |

— the supplement of paper PMC10307832
